From patent US20240010634A1, “PYRIMIDINYL SULFONAMIDES AS INHIBITORS OF ACK1/TNK2 TYROSINE KINASE” (H. LEE MOFFITT CANCER CENTER AND RESEARCH INSTITUTE, INC., priority 2020, published 2024) come the findings set out here.

Several values for one entry are separate records, joined by “and”; a condition that tells them apart may be missing. Equal values may be shown once.

For assay [1], the target named is ACK1 (Homo sapiens (Human), UniProt Q07912). In words: Reaction Biology 33P Hotspot assay. Format: biochemical.
Assay [2] concerns UKE1. In words: Cell viability (UKE1). The class given is cell-based.
Assay [3] relates to MDA-MB-231. In words: Cell viability (MDA-MB-231). The note with it: Homo sapiens. The class given is cell-based.

ACK1, sequence (Q07912 whole entry): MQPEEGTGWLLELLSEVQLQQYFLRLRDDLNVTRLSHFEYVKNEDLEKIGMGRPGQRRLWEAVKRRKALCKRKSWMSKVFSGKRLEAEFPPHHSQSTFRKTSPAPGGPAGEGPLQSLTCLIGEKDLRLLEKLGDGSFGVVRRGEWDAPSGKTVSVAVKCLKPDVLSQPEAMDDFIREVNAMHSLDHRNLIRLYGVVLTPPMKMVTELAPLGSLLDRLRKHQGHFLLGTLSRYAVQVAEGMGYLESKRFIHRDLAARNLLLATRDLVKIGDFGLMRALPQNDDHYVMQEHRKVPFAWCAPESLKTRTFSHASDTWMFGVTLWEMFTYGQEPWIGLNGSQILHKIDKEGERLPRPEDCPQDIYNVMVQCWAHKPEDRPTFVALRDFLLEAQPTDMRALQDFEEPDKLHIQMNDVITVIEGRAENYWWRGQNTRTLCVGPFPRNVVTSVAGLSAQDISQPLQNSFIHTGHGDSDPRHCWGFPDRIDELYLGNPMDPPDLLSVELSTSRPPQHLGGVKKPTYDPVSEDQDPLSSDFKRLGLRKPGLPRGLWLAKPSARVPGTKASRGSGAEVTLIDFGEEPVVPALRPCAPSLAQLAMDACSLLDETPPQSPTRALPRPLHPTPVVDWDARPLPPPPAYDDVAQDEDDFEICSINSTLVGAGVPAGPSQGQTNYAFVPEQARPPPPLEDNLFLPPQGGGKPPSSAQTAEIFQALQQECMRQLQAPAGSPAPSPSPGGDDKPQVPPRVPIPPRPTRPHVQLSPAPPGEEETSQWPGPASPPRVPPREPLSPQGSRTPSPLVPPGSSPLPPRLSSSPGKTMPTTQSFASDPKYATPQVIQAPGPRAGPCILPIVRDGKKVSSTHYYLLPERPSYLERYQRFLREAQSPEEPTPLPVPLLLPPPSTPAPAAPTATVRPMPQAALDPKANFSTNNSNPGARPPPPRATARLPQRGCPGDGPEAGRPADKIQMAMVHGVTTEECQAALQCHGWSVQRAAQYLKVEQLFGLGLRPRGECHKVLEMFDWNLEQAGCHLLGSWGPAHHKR

Turning to `CC(C)Oc1cc(Nc2ncc(Cl)c(Nc3cccc(NS(=O)(=O)C(C)(C)C)c3)n2)ccc1-c1cnn(C)c1` [N-(3-((5-chloro-2-((3-isopropoxy-4-(1-methyl-1H-pyrazol-4-yl)phenyl)amino)pyrimidin-4-yl)amino)phenyl)-2-methylpropane-2-sulfonamide], in assay [1], half-maximal inhibition (IC50) was put at 64 nM.
The same measure, in the same setting: the same measure for `COc1cc(N2CCN(C)CC2)c(F)cc1Nc1ncc(C)c(Nc2ccc(NS(=O)(=O)C(C)(C)C)cc2)n1` [N-(4-((2-((5-fluoro-2-methoxy-4-(4-methylpiperazin-1-yl)phenyl)amino)-5-methylpyrimidin-4-yl)amino)phenyl)-2-methylpropane-2-sulfonamide]: 30.8 nM; for `Cc1cnc(Nc2ccc(N3CCN(C)CC3)c(OC(C)C)c2)nc1Nc1ccc(NS(=O)(=O)C(C)(C)C)cc1` [N-(4-((2-((3-isopropoxy-4-(4-methylpiperazin-1-yl)phenyl)amino)-5-methylpyrimidin-4-yl)amino)phenyl)-2-methylpropane-2-sulfonamide]: 18.7 nM.
The compound `Cc1cnc(Nc2ccc(N3CCN(C)CC3)cc2OC2CCC2)nc1Nc1cccc(NS(=O)(=O)C(C)(C)C)c1` [N-(3-((2-((2-cyclobutoxy-4-(4-methylpiperazin-1-yl)phenyl)amino)-5-methylpyrimidin-4-yl)amino)phenyl)-2-methylpropane-2-sulfonamide] gave an IC50 in assay [1] of 26.2 nM.
For the compound `Cc1cnc(Nc2ccc(N3CCN(C)CC3)c(OC(C)C)c2)nc1Nc1cccc(NS(=O)(=O)C(C)(C)C)c1` [N-(3-((2-((3-isopropoxy-4-(4-methylpiperazin-1-yl)phenyl)amino)-5-methylpyrimidin-4-yl)amino)phenyl)-2-methylpropane-2-sulfonamide], the figures for the EC50 in assay [2] and in assay [3] were 470 nM and 213 nM, respectively. Besides, in assay [1], the IC50 was 13 nM and 13.8 nM.
Take `CN1CCN(c2ccc(Nc3ncc(Cl)c(Nc4cccc(NS(=O)(=O)C(C)(C)C)c4)n3)c(OC3CCC3)c2)CC1` [N-(3-((5-chloro-2-((2-cyclobutoxy-4-(4-methylpiperazin-1-yl)phenyl)amino)pyrimidin-4-yl)amino)phenyl)-2-methylpropane-2-sulfonamide]: the IC50 in assay [1] is 30 nM.
In assay [1], `COc1cc(Nc2ncc(C)c(Nc3cccc(NS(=O)(=O)C(C)(C)C)c3)n2)ccc1-c1cnn(C)c1` [N-(3-((2-((3-methoxy-4-(1-methyl-1H-pyrazol-4-yl)phenyl)amino)-5-methylpyrimidin-4-yl)amino)phenyl)-2-methylpropane-2-sulfonamide] came in with an IC50 of 19 nM. This IC50 is about 1.6-fold lower than that of the compound before.
Consider `Cc1cnc(Nc2ccc(N3CCN(C)CC3)c(OC(C)C)c2)nc1Nc1ccc(Cl)c(NS(=O)(=O)C(C)(C)C)c1` [N-(2-chloro-5-((2-((3-isopropoxy-4-(4-methylpiperazin-1-yl)phenyl)amino)-5-methylpyrimidin-4-yl)amino)phenyl)-2-methylpropane-2-sulfonamide], for which the EC50 worked out at 850 nM in assay [2] and 220 nM in assay [3]. In assay [1], this compound registered an IC50 of 14 nM.
As for `CC(C)Oc1cc(Nc2ncc(Cl)c(Nc3cccc(NS(=O)(=O)C(C)(C)C)c3)n2)ccc1N1CCN(C)CC1` [N-(3-((5-chloro-2-((3-isopropoxy-4-(4-methylpiperazin-1-yl)phenyl)amino)pyrimidin-4-yl)amino)phenyl)-2-methylpropane-2-sulfonamide], the half-maximal inhibitory concentration (IC50) in assay [1] came to 15 nM.
For `COc1cc(-c2cnn(C)c2)ccc1Nc1ncc(C)c(Nc2cccc(NS(=O)(=O)C(C)(C)C)c2)n1` [N-(3-((2-((2-methoxy-4-(1-methyl-1H-pyrazol-4-yl)phenyl)amino)-5-methylpyrimidin-4-yl)amino)phenyl)-2-methylpropane-2-sulfonamide], inhibition in assay [1] was half-maximal at 15.2 nM (IC50).
Take `Cc1cnc(Nc2ccc(-c3cnn(C)c3)c(OC(C)C)c2)nc1Nc1cccc(NS(=O)(=O)C(C)(C)C)c1` [N-(3-((2-((3-isopropoxy-4-(1-methyl-1H-pyrazol-4-yl)phenyl)amino)-5-methylpyrimidin-4-yl)amino)phenyl)-2-methylpropane-2-sulfonamide]: the IC50 in assay [1] is 26 nM. This IC50 is about 1.7-fold higher than that of the compound before.
`COc1cc(N2CCN(C)CC2)ccc1Nc1ncc(C)c(Nc2ccc(NS(=O)(=O)C(C)(C)C)cc2)n1` [N-(4-((2-((2-methoxy-4-(4-methylpiperazin-1-yl)phenyl)amino)-5-methylpyrimidin-4-yl)amino)phenyl)-2-methylpropane-2-sulfonamide]: the IC50 in assay [1] is 7.62 nM.
Consider `CC(C)Oc1cc(Nc2ncc(Cl)c(Nc3ccc(NS(=O)(=O)C(C)(C)C)cc3)n2)ccc1N1CCN(C)CC1` [N-(4-((5-chloro-2-((3-isopropoxy-4-(4-methylpiperazin-1-yl)phenyl)amino)pyrimidin-4-yl)amino)phenyl)-2-methylpropane-2-sulfonamide], for which, in assay [1], the IC50 stood at 15.5 nM. Against the preceding compound, the IC50 is about 2-fold higher.
The compound `CC(C)Oc1cc(Nc2ncc(Cl)c(Nc3ccc(NS(=O)(=O)C(C)(C)C)cc3)n2)ccc1-c1cnn(C)c1` [N-(4-((5-chloro-2-((3-isopropoxy-4-(1-methyl-1H-pyrazol-4-yl)phenyl)amino)pyrimidin-4-yl)amino)phenyl)-2-methylpropane-2-sulfonamide] registered an IC50 in assay [1] of 75.9 nM. This IC50 is about 4.9-fold higher than that of the compound before.
`Cc1cnc(Nc2ccc(-c3cnn(C)c3)cc2OC(C)C)nc1Nc1cccc(NS(=O)(=O)C(C)(C)C)c1` [N-(3-((2-((2-isopropoxy-4-(1-methyl-1H-pyrazol-4-yl)phenyl)amino)-5-methylpyrimidin-4-yl)amino)phenyl)-2-methylpropane-2-sulfonamide] yielded an IC50 in assay [1] of 149 nM.
Still for that read-out and setting: the same measure for `CC(=O)N1CCN(c2ccc(Nc3ncc(C)c(Nc4cccc(NS(=O)(=O)C(C)(C)C)c4)n3)cc2OC(C)C)CC1` [N-(3-((2-((4-(4-acetylpiperazin-1-yl)-3-isopropoxyphenyl)amino)-5-methylpyrimidin-4-yl)amino)phenyl)-2-methylpropane-2-sulfonamide]: 13 nM; for `COc1cc(N2CCN(C)CC2)c(F)cc1Nc1ncc(C)c(Nc2cccc(NS(=O)(=O)C(C)(C)C)c2)n1` [N-(3-((2-((5-fluoro-2-methoxy-4-(4-methylpiperazin-1-yl)phenyl)amino)-5-methylpyrimidin-4-yl)amino)phenyl)-2-methylpropane-2-sulfonamide]: 16.9 nM.
Regarding `COc1cc(N2CCN(C)CC2)ccc1Nc1ncc(Cl)c(Nc2ccc(NS(=O)(=O)C(C)(C)C)cc2)n1` [N-(4-((5-chloro-2-((2-methoxy-4-(4-methylpiperazin-1-yl)phenyl)amino)pyrimidin-4-yl)amino)phenyl)-2-methylpropane-2-sulfonamide], the concentration for half-maximal inhibition (IC50) in assay [1] came to 17.5 nM.
In assay [1], `COc1cc(N2CCN(C(C)=O)CC2)ccc1Nc1ncc(C)c(Nc2cccc(NS(=O)(=O)C(C)(C)C)c2)n1` [N-(3-((2-((4-(4-acetylpiperazin-1-yl)-2-methoxyphenyl)amino)-5-methylpyrimidin-4-yl)amino)phenyl)-2-methylpropane-2-sulfonamide] returned an IC50 of 21.3 nM.
Turning to `CC(C)Oc1cc(Nc2ncc(Cl)c(Nc3ccc(NS(C)(=O)=O)cc3)n2)ccc1N1CCN(C)CC1` [N-(4-((5-chloro-2-((3-isopropoxy-4-(4-methylpiperazin-1-yl)phenyl)amino)pyrimidin-4-yl)amino)phenyl)methanesulfonamide], the IC50 in assay [1] is 26.7 nM. This IC50 and that of the compound before are within 1.5-fold of each other.
On the same count and under the same terms, the same measure for `Cc1cnc(Nc2ccc(OCC3CCOCC3)cc2)nc1Nc1cccc(NS(=O)(=O)C(C)(C)C)c1` [2-methyl-N-(3-((5-methyl-2-((4-((tetrahydro-2H-pyran-4-yl)methoxy)phenyl)amino)pyrimidin-4-yl)amino)phenyl)propane-2-sulfonamide]: 26 nM; for `COc1cc(Nc2ncc(Cl)c(Nc3ccc(NS(=O)(=O)C(C)(C)C)cc3)n2)ccc1N1CCN(C)CC1` [N-(4-((5-chloro-2-((3-methoxy-4-(4-methylpiperazin-1-yl)phenyl)amino)pyrimidin-4-yl)amino)phenyl)-2-methylpropane-2-sulfonamide]: 17.5 nM.
`COc1c(Nc2ncc(C)c(Nc3cccc(NS(=O)(=O)C(C)(C)C)c3)n2)ccc(N2CCN(C)CC2)c1F` [N-(3-((2-((3-fluoro-2-methoxy-4-(4-methylpiperazin-1-yl)phenyl)amino)-5-methylpyrimidin-4-yl)amino)phenyl)-2-methylpropane-2-sulfonamide] had an IC50 in assay [1] of 37.6 nM.
`COc1cc(Nc2ncc(C)c(Nc3ccc(NS(=O)(=O)C(C)(C)C)cc3)n2)ccc1N1CCN(C)CC1` [N-(4-((2-((3-methoxy-4-(4-methylpiperazin-1-yl)phenyl)amino)-5-methylpyrimidin-4-yl)amino)phenyl)-2-methylpropane-2-sulfonamide] came in with an IC50 in assay [1] of 15.9 nM.
As for `COc1cc(N2CCN(C)CC2)c(F)cc1Nc1ncc(C)c(Nc2ccc(NS(C)(=O)=O)cc2)n1` [N-(4-((2-((5-fluoro-2-methoxy-4-(4-methylpiperazin-1-yl)phenyl)amino)-5-methylpyrimidin-4-yl)amino)phenyl)methanesulfonamide], half-maximal inhibition in assay [1] (IC50) was put at 14.8 nM.
On to `CC(=O)N1CCN(c2ccc(Nc3ncc(C)c(Nc4cccc(NS(=O)(=O)C(C)(C)C)c4)n3)cc2)CC1` [N-(3-((2-((4-(4-acetylpiperazin-1-yl)phenyl)amino)-5-methylpyrimidin-4-yl)amino)phenyl)-2-methylpropane-2-sulfonamide], for which the IC50 in assay [1] was determined as 15.3 nM. This IC50 and that of the compound before are within 1.5-fold of each other.
In turn, `Cc1cnc(Nc2ccc(-c3cnn(C)c3)c(OC(C)C)c2)nc1Nc1ccc(NS(=O)(=O)C(C)(C)C)cc1` [N-(4-((2-((3-isopropoxy-4-(1-methyl-1H-pyrazol-4-yl)phenyl)amino)-5-methylpyrimidin-4-yl)amino)phenyl)-2-methylpropane-2-sulfonamide] registered an IC50 in assay [1] of 16.9 nM. The IC50 values of the last two compounds are within 1.5-fold of each other.
On to `COc1cc(-n2cccn2)ccc1Nc1ncc(C)c(Nc2cccc(NS(=O)(=O)C(C)(C)C)c2)n1` [N-(3-((2-((2-methoxy-4-(1H-pyrazol-1-yl)phenyl)amino)-5-methylpyrimidin-4-yl)amino)phenyl)-2-methylpropane-2-sulfonamide], for which the EC50 in assay [2] is above 10000 nM; in assay [3], 11000 nM. This compound also came in with an IC50 in assay [1] of 19.8 nM.
